Results on 34 compounds are retold here after patent US7179823B1, “5-membered n-heterocyclic compounds with hypoglycemic and hypolipidemic activity” (Takeda Pharmaceutical Company Limited, priority 1999, dated 2007).

Structures are written as SMILES.

As usually defined, the melting point is the temperature, or range, at which the solid turns liquid. Turning to `Cc1oc(-c2ccccc2)nc1CCOc1ccc(Cn2cc(CC(=O)O)c(-c3ccccc3)n2)cn1` [Example 314, [1-[6-[2-(5-methyl-2-phenyl-4-oxazolyl)ethoxy]-3-pyridylmethyl]-3-phenyl-1H-pyrazol-4-yl]acetic acid], the melting point is 148 to 149 °C.
Regarding `O=C(O)CCc1cn(Cc2ccc(OCc3csc(-c4cnccn4)n3)cc2)cc1-c1ccccc1` [Example 16, 3-[4-phenyl-1-[4-[2-(2-pyrazinyl)-4-thiazolylmethoxy]benzyl]-3-pyrrolyl]propionic acid], the melting point lay in the range of 137 to 138 °C.
The figure for `O=C(O)CCc1cn(Cc2ccc(OCc3csc(-c4ccccn4)n3)cc2)cc1-c1ccccc1` [Example 32, 3-[4-phenyl-1-[4-[2-(2-pyridyl)-4-thiazolylmethoxy)benzyl]-3-pyrrolyl]propionic acid] is 117 to 118 °C; for `O=C(O)CCc1cn(Cc2ccc(OCc3csc(-c4ccncc4)n3)cc2)cc1-c1ccccc1` [Example 34, 3-[4-phenyl-1-[4-[2-(4-pyridyl)-4-thiazolylmethoxy)benzyl]-3-pyrrolyl]propionic acid] it is 149 to 150 °C.
With `O=C(O)CCc1cn(Cc2ccc(OCc3ccc(-c4ccccc4)cn3)cc2)nc1-c1ccc(F)cc1` [Example 296, 3-[3-(4-fluorophenyl)-1-[4-(5-phenyl-2-pyridylmethoxy)benzyl]-1H-pyrazol-4-yl]propionic acid], the melting point is 162 to 163 °C.
In turn, `CCOC(=O)c1cn(Cc2ccc(Oc3ccccc3)cc2)nc1OCc1ccc(OCc2nc(-c3ccco3)oc2C)c(OC)c1` [Example 321, ethyl 3-[4-[2-(2-furyl)-5-methyl-4-oxazolylmethoxy]-3-methoxybenzyloxy]-1-(4-phenoxybenzyl)-1H-pyrazole-4-carboxylate] had a melting point of 98 to 99 °C.
For `CCOc1nn(Cc2ccnc(OCc3nc(-c4ccccc4)oc3C)c2)cc1CCC(=O)O` [Example 211, 3-[3-ethoxy-1-[2-(5-methyl-2-phenyl-4-oxazolylmethoxy)-4-pyridylmethyl]-1H-pyrazol-4-yl]propionic acid] the value was 114 to 115 °C; for `O=C(O)CCc1cn(Cc2ccc(OCc3noc(-c4ccccc4)n3)cc2)nc1-c1ccccc1` [Example 85, 3-[3-phenyl-1-[4-(5-phenyl-1,2,4-oxadiazole-3-ylmethoxy)benzyl]-1H-pyrazol-4-yl]propionic acid], 166 to 167 °C; for `CCOc1nn(Cc2ccc(OCc3nc(-c4ccccc4)ccc3Cl)cc2)cc1CCC(=O)O` [Example 244, 3-[1-[4-(3-chloro-6-phenyl-2-pyridylmethoxy)benzyl]-3-ethoxy-1H-pyrazol-4-yl]propionic acid], 120 to 121 °C.
`CCOc1nn(Cc2ccc(OCc3nc(-c4ccccc4)oc3C)cc2)cc1CC(=O)O` [Example 260, 3-ethoxy-1-[4-(5-methyl-2-phenyl-4-oxazolylmethoxy)benzyl]-1H-pyrazol-4-ylacetic acid] displayed a melting point of 125 to 126 °C.
The compound `O=C(O)CCc1cn(Cc2ccc3cc(OCc4cccnc4)ccc3c2)cc1-c1ccccc1` [Example 58, 3-[4-phenyl-1-[6-(3-pyridylmethoxy)-2-naphthylmethyl]-3-pyrrolyl]propionic acid] yielded a melting point of 158 to 159 °C.
The figure for `O=C(O)CCc1cn(Cc2ccc(OCc3cncc(-c4ccccc4)c3)cc2)nc1-c1ccccc1` [Example 290, 3-[3-phenyl-1-[4-(5-phenyl-3-pyridylmethoxy)benzyl]-1H-pyrazol-4-yl]propionic acid] is 161 to 162 °C; for `Cc1oc(-c2ccncc2)nc1COc1ccc(Cn2cc(CCC(=O)O)c(-c3ccccc3)n2)cc1` [Example 83, 3-[1-[4-[5-methyl-2-(4-pyridyl)-4-oxazolylmethoxy]benzyl]-3-phenyl-1H-pyrazol-4-yl]propionic acid] it is 154 to 155 °C; for `CCOc1nn(Cc2ccc(OCc3ccc4ccccc4n3)cc2)cc1CCC(=O)O` [Example 209, 3-[3-ethoxy-1-[4-(2-quinolylmethoxy)benzyl]-1H-pyrazol-4-yl]propionic acid] it is 140 to 141 °C.
For `O=C(O)Cc1cn(Cc2ccc(OCc3csc(-c4ccccc4)n3)nc2)nc1-c1ccccc1` [Example 310, [3-phenyl-1-[6-(2-phenyl-4-thiazolylmethoxy)-3-pyridylmethyl]-1H-pyrazol-4-yl]acetic acid] the value was 118 to 119 °C; for `CCOC(=O)Cc1cn(Cc2ccc(OCc3csc(-c4ccccc4)n3)nc2)nc1-c1ccccc1` [Example 309, ethyl(3-phenyl-1-[6-(2-phenyl-4-thiazolylmethoxy)-3-pyridylmethyl]-1H-pyrazol-4-yl]acetate], 75 to 76 °C; for `CCOC(=O)c1cn(Cc2ccc(Oc3ccccc3)cc2)nc1OCc1nc(-c2ccccc2)oc1C` [Example 329, ethyl 3-(5-methyl-2-phenyl-4-oxazolylmethoxy)-1-(4-phenoxybenzyl)-1H-pyrazole-4-carboxylate], 96 to 97 °C.
For `CCOc1nn(Cc2ccnc(OCc3cn4c(-c5ccccc5)cccc4n3)c2)cc1CCC(=O)O` [Example 238, 3-[3-ethoxy-1-[2-(5-phenylimidazo[1,2-a]pyridin-2-ylmethoxy)-4-pyridylmethyl]-1H-pyrazol-4-yl]propionic acid] the value was 177 to 178 °C.
Consider `O=C(O)CCc1cn(Cc2ccc(OCc3ccc(-c4ccccc4)nc3)cc2)cc1-c1ccccc1` [Example 277, 3-[4-phenyl-1-[4-(6-phenyl-3-pyridylmethoxy)benzyl]-3-pyrrolyl]propionic acid], for which the melting point fell in the range of 185 to 186 °C.
On to `CCOc1nn(Cc2ccnc(OCc3cn4c(Cl)cccc4n3)c2)cc1CCC(=O)O` [Example 236, 3-[1-[2-(5-chloroimidazo[1,2-a]pyridin-2-ylmethoxy)-4-pyridylmethyl]-3-ethoxy-1H-pyrazol-4-yl]propionic acid], for which the melting point fell in the range of 160 to 161 °C.
With `Cc1nc(COc2ccc(Cn3cc(CCC(=O)O)c(-c4ccccc4)c3)cc2)cs1` [Example 42, 3-[1-[4-(2-methyl-4-thiazolylmethoxy]benzyl]-4-phenyl-3-pyrrolyl]propionic acid], the melting point lay within 113 to 114 °C.
The figure for `CCOc1nn(Cc2ccc(OC)c(OCc3nc(-c4ccccc4)oc3C)c2)cc1CCC(=O)O` [Example 215, 3-[3-ethoxy-1-[4-methoxy-3-(5-methyl-2-phenyl-4-oxazolylmethoxy)benzyl]-1H-pyrazol-4-yl]propionic acid] is 136 to 137 °C.
Regarding `CCOc1nn(Cc2cccc(OCc3nc(-c4ccccc4)oc3C)n2)cc1CCC(=O)O` [Example 223, 3-[3-ethoxy-1-[6-(5-methyl-2-phenyl-4-oxazolylmethoxy)-2-pyridylmethyl]-1H-pyrazol-4-yl]propionic acid], the melting point was 144 to 145 °C.
For `Cc1oc(-c2ccccc2)nc1COc1ccc(Cn2cc(CCC(=O)O)cn2)cc1` [Example 142, 3-[1-[4-(5-methyl-2-phenyl-4-oxazolylmethoxy)benzyl]-1H-pyrazol-4-yl]propionic acid], the melting point fell in the range of 124 to 125 °C.
`CCOc1nn(Cc2ccc(OCc3csc(-c4ccccc4)n3)nc2)cc1CCC(=O)O` [Example 254, 3-[3-ethoxy-1-[6-(2-phenyl-4-thiazolylmethoxy)-3-pyridylmethyl]-1H-pyrazol-4-yl]propionic acid] came in with a melting point of 121 to 122 °C.
For `O=C(O)CCc1cn(Cc2ccc(OCc3csc(-c4ccccc4)n3)nc2)nc1-c1ccccc1` [Example 300, 3-[3-phenyl-1-[6-(2-phenyl-4-thiazolylmethoxy)-3-pyridylmethyl]-1H-pyrazol-4-yl]propionic acid] the value was 107 to 108 °C; for `COc1cc(COc2nn(Cc3ccc(Oc4ccccc4)cc3)cc2C(N)=O)ccc1OCc1nc(-c2ccco2)oc1C` [Example 323, 3-[4-[2-(2-furyl)-5-methyl-4-oxazolylmethoxy]-3-methoxybenzyloxy]-1-(4-phenoxybenzyl)-1H-pyrazole-4-carbamide], 105 to 106 °C.
The figure for `O=C(O)CCc1cn(Cc2ccc(OCc3cccc(-c4cnccn4)c3)cc2)cc1-c1ccccc1` [Example 36, 3-[4-phenyl-1-[4-[3-(2-pyrazinyl)benzyloxy]benzyl]-3-pyrrolyl]propionic acid] is 91 to 92 °C.
For `CCOC(=O)/C=C/c1cn(Cc2ccc(OCc3ccccc3)cc2)nc1-c1ccc(F)cc1` [Example 281, ethyl (E)-3-[1-(4-benzyloxybenzyl)-3-(4-fluorophenyl)-1H-pyrazol-4-yl]propenoate] the value was 113 to 114 °C; for `Cc1oc(-c2ccccc2)nc1COc1nn(Cc2ccc(Oc3ccccc3)cc2)cc1C(N)=O` [Example 331, 3-(5-methyl-2-phenyl-4-oxazolylmethoxy)-1-(4-phenoxybenzyl)-1H-pyrazole-4-carbamide], 158 to 159 °C.
`CCCc1c(CCC(=O)O)cnn1Cc1ccc(OCc2nc(-c3ccccc3)oc2C)cc1` [Example 112, 3-[1-[4-(5-methyl-2-phenyl-4-oxazolylmethoxy)benzyl]-5-propyl-1H-pyrazol-4-yl]propionic acid] had a melting point of 158 to 159 °C.
For `Cc1oc(-c2ccccc2)nc1CCOc1ccc(Cn2cc(CCC(=O)O)c(-c3ccccc3)c2)cc1` [Example 14, 3-[1-[4-[2-(5-methyl-2-phenyl-4-oxazolyl)ethoxy]benzyl]-4-phenyl-3-pyrrolyl]propionic acid], the melting point fell in the range of 147 to 148 °C.
`Cc1sc(-c2ccccc2)nc1COc1ccc(Cn2cc(CC(=O)O)c(-c3ccccc3)n2)cn1` [Example 312, [1-[6-(5-methyl-2-phenyl-4-thiazolylmethoxy)-3-pyridylmethyl]-3-phenyl-1H-pyrazol-4-yl]acetic acid] displayed a melting point of 140 to 141 °C.
For `CCOc1nn(Cc2ccc(OCc3cncc(-c4ccccc4)c3)cc2)cc1CCC(=O)O` [Example 240, 3-[3-ethoxy-1-[4-(5-phenyl-3-pyridylmethoxy)benzyl]-1H-pyrazol-4-yl]propionic acid] the value was 92 to 93 °C.
